# Laboratory results from patent US10966911B2, “Melanin decomposition inhibitor” (KAO CORPORATION, priority 2016, dated 2021).
# Tests used:
# [1] = test system: human skin tissue; assay: HE staining of skin tissue cultured with proguanil (tissue damage); type: cell-based; details: proguanil 180 μM; 5 days; FIG. 13 lower stage
# Protocol: The human skin tissue, from which subcutaneous fat was previously trimmed, was cut into small pieces having a size of about 1 cm×1 cm by knife. The small pieces were cultured by using a 6-well plate at 37° C. under a 5 vol % CO2 atmospheric conditions. In the culture, Advanced DMEM medium containing a 10% (v/v) Fetal Bovine Serum (FBS) (Thermo Fisher Scientific, respectively) was used. […] More specifically, the skin tissue was embedded in paraffin and the resultant paraffine block was sliced to prepare paraffin sections of 5 μm in thickness. A Fontana ammonia silver solution (manufactured by MUTO PURE CHEMICALS Co., Ltd.) was allowed to react at room temperature for two hours to visually distinguish melanin granules. Thereafter, nuclear staining was performed using Kernechtrot solution (manufactured by MUTO PURE CHEMICALS Co., Ltd.). […] At the same time, HE staining was carried out.
# [2] = test system: keratinocytes and melanocytes; assay: Cellular respiratory chain (growth) activity in keratinocyte-melanocyte co-culture system; type: cell-based, human; details: concentration range of 30 μM or less, 4 days, FIGS. 16C, 16D
# From the text: Normal human neonatal foreskin-derived epidermal keratinocytes (Human Epidermal Keratinocytes, neonatal (HEKn) lightly; keratinocytes) and growth medium (Epilife) for epidermal keratinocytes were purchased from Thermo Fisher Scientific. Growth additives (Humedia-KG) for a medium were purchased from Kurabo Industries Ltd. Normal human neonatal foreskin-derived epidermal melanocytes (Human Epidermal Melanocytes, neonatal, lightly pigmented donor (HEMn-LP) and Human Epidermal Melanocytes, neonatal, darkly pigmented donor (HEMn-DP); melanocytes (lightly) and melanocytes (darkly)) were purchased from Thermo Fisher Scientific. Keratinocytes and melanocytes were cultured at 37° C. in 5 vol % CO2 atmospheric conditions.
# Keratinocytes were seeded in a 96-well plate at a cell density of 1×10^4 cells/well (100 μL/well). On the following day, melanocytes (lightly and darkly) were seeded at a cell density of 2×10^4 cells/well (100 μL/well). […] Culture was performed at 37° C. in a 5 vol % CO2 atmospheric conditions for 4 days. As a test medium at this time, Epilife was used, which contained Humedia-KG growth additive (insulin, hydrocortisone, BPE, gentamicin and amphotericin B) except a Human Epidermal Growth Factor (hEGF). […] After completion of culture, cellular respiratory chain (growth) activity and dopa oxidase activity were evaluated in the same manner as in Example 11.
# [3] = test system: melanocytes (HEMn-LP, HEMn-DP); assay: Intracellular melanin amount of melanocytes in melanocyte single culture system; type: cell-based, human; details: melanocytes (lightly and darkly); proguanil 3, 10 or 30 μM; 7 days; versus DMSO; FIGS. 15A, 15B
# Protocol: Normal human neonatal foreskin-derived epidermal melanocytes (Human Epidermal Melanocytes, neonatal, lightly pigmented donor (HEMn-LP) and Human Epidermal Melanocytes, neonatal, darkly pigmented donor (HEMn-DP); melanocytes (lightly) and melanocytes (darkly)), a growth medium for epidermal melanocytes (Medium254) and a growth additive (HMGS) for the medium were purchased from Thermo Fisher Scientific. Melanocytes were cultured at 37° C. in 5 vol % CO2 atmospheric conditions. Melanocytes (lightly and darkly) were seeded in 6-well plates at a cell density of 2×10^5 cells/well (2 mL/well). […] The following day, proguanil was added at a final concentration of 3, 10 or 30 μM and culture was performed at 37° C. in 5 vol % CO2 atmospheric conditions for 7 days. As a control, the same amount of DMSO was added. Note that medium replacement was carried out every 2 to 3 days. After completion of culture, the cell culture plates were washed with PBS and the cells were collected by use of a cell scraper in 1.5 mL micro tubes. To individual tubes, 2M NaOH (150 μL) was added and treatment was performed at 100° C. for 60 minutes to lyse the cells. Each of the lysates was centrifuged at a 21,640 g for 10 minutes at room temperature and the supernatant was recovered. The absorbance of the supernatant recovered was measured at a wavelength of 405 nm and the amount of melanin per well was calculated.
# [4] = test system: Pmel17; assay: Melanin (melanosome) decomposition in epidermal keratinocytes that incorporated MNT-1 melanosome fraction; type: cell-based, human; details: keratinocytes with incorporated melanosome, proguanil 10 or 30 μM, 2 days, FIG. 17
# Protocol: Normal human neonatal foreskin-derived epidermal keratinocytes (Human Epidermal Keratinocytes, neonatal (HEKn) lightly; keratinocytes) were purchased from Thermo Fisher Scientific. Melanoma cell strain MNT-1 cells were given by Dr. […] (University La Sapienza, Rome, Italy). The keratinocytes were cultured in a grow medium (Epilife) epidermal keratinocytes (Thermo Fisher Scientific) supplemented with a growth additive (Humedia-KG) (manufactured by Kurabo Industries Ltd.) at 37° C. in 5 vol % CO2 atmospheric conditions. As a grow medium MNT-1 cells, RPMI1640 medium (Thermo Fisher Scientific) containing AIM-V medium and Fetal Bovine Serum (FES) each in an amount of 10% (v/v) was used and culture was performed at 37° C. in 5 vol % CO2 atmospheric conditions. A melanosome fraction was isolated and prepared from MNT-1 cells by a predetermined method (Murase et al. (2013), J Invest Dermatol, 133: 2416-2424). […] The resultant supernatant was subjected to quantitative determination of protein by BCA (bicinchoninic acid) method using Pierce BCA Protein Assay Kit (Thermo Fisher Scientific) and Bovine Serum Albumin (BSA) as a standard substance. […] Expression of β-actin as the internal standard was evaluated by using a monoclonal antibody specific for β-actin (Sigma-Aldrich, 1:5000). […]
smiles,measurement,setting,value
"[H]/N=C(\N/C(=N/[H])Nc1ccc(Cl)cc1)NC(C)C [proguanil, 1-(p-chlorophenyl)-5-isopropyl biguanide]",tissue damage (HE staining),[1],no damage was induced in the tissue
same,cell toxicity (cellular respiratory chain activity),[2],cell toxicity was not observed
same,intracellular amount of melanin,[3],does not increase intracellular amount of melanin
same,color density of the cell sediment,[4],confirmed to be increased in a concentration-dependent manner
same,intensity of the band of Pmel17,[4]; versus DMSO,is increased in a concentration-dependent manner
